# According to patent publication US20210079358A1, “ASSEMBLOID - 3D MIMETIC TISSUE STRUCTURE BASED ON PATIENT- DERIVED MULTIPLE CELL TYPES AND METHOD OF MANUFACTURING THE SAME” (POSTECH Research and Business Development Foundation, priority 2019, published 2021):
# Entries after “also recorded” stand apart in the source; their conditions may differ.
# How the values were obtained:
# [1] = test system: reconstituted bladder organoids with stroma; test: Cell proliferation in reconstituted bladder organoids with stroma under Hh pathway manipulation; assay type: cell-based, mouse; conditions: 50 μM Vismodegib or 100 nM SAG vs DMSO, 7 days
# Procedure: (§1) To generate normal bladder organoids with stroma, normal bladder organoids cultured for a long time (>6 months) were mixed with mouse embryonic fibroblasts (MEFs) and endothelial cells (HULEC, ATCC) at 3.75×10^4 cells/μL and 5×10^3 cells/μL, respectively, along with 3 to 4 μL of Matrigel. Before additional analysis, these bladder organoids with stroma were cultured in an organoid medium in a spinning bioreactor for 7 days. The 12-well version of the spinning bioreactor was manufactured by 3D printing according to the method described in Qian, X. et al. Brain-Region-Specific Organoids Using Mini-bioreactors for Modeling ZIKV Exposure. Cell 165, 1238-1254, doi:10.1016/j.cell. 2016.04.032 (2016). In brief, individual components such as a plate cover (Project MJP 2500, 3D Systems, USA), a rotating shaft (Single Plus, Cubicon, Korea), a fixed rod (Single Plus, Cubicon, Korea) and a gear (Single Plus, Cubicon, Korea) were printed using a 3D printer in a stackable version, and the components were assembled to manufacture a spinning bioreactor. […]
# (§2) Normal bladder organoids were treated with 50 μM Vismodegib (Abmole), 100 nM SAG (Millipore) or DMSO and cultured in a spinning bioreactor for 7 days. […] Capase-3/7-stained cells in the bladder tumor organoids were counted based on green fluorescence signals, and dose-response curves were generated using GraphPad Prism ver.6. […]
# [2] = test system: patient-derived bladder tumor organoids; test: Growth of patient-derived bladder tumor organoids with or without tumor stroma treated with Hh or Bmp agonist; assay type: cell-based, human; conditions: 300 nM SAG, 7 days
# Procedure: Tumor tissues obtained from patients were washed with DPBS, and then washed twice with DMEM supplemented with 10% FBS. The washed tumors were minced and incubated in DMEM containing 10% FBS and collagenase I and II (20 mg/mL each) at 37° C. for 1 hour and ground for 5 minutes every 30 minutes. The isolated tissues were spun down at 1,500 rpm for 5 minutes, resuspended in ACK lysis buffer, and then incubated for 5 minutes at room temperature. Dissociated clusters were washed with DMEM containing 10% FBS and filtered through a 100 μm cell strainer. The dissociated cell clusters were spun down, resuspended in Matrigel (Growth Factor reduced) and plated in the middle of one well of a 6-well plate. The plated drop was solidified in an incubator at 37° C. for 15 minutes, and a 2.5 mL organoid medium [advanced DMEM/F-12 supplemented with 10 mM HEPES (pH 7.4), 10 mM nicotinamide, 1 mM N-acetyl-L-cysteine, GlutaMAX, 1% penicillin/streptomycin, 50 ng/mL mouse EGF, 0.5×B-27, 1 mM A8301 and 10 mM Y-27632] was added to the well. The medium was replaced once every 2 to 3 days. For passaging, 1 mg/mL collagenase/dispase was added to the medium, followed by incubation for 1 hour at 37° C. to digest the Matrigel. Subsequently, organoids were centrifuged at 1,500 rpm for 3 minutes, washed with PBS, and then spun down. Then, 0.05% trypsin-EDTA (Welgene) was added, organoids were incubated at 37° C. for 5 minutes, followed by mechanical grinding into small cells by pipetting. The organoids were passaged in a 1:3 or 1:4 ratio every 1 to 2 weeks.
# To generate patient-derived tumor organoids with stroma, human tumor organoids were cultured for 10 days, and mixed with stromal components containing patient-derived CAFs and HULECs at concentrations of 5×10^4 cells/μL and 4×10^3 cells/μL, respectively, in Matrigel. And then, 5 μL drops of tumor organoids with stroma were cultured in an organoid medium in a spinning bioreactor for 7 days. […]
# [3] = test system: 3D bioprinted patient-derived bladder tumor organoids; test: Tumor growth of 3D bioprinted patient-derived bladder tumor organoids treated with SAG or FK506; assay type: cell-based, human
# Procedure: Tumor cells derived from patient-derived bladder tumor organoids were embedded in 40 μL Matrigel at a density of 5×10^5 cells/mL, and cultured in an organoid culture medium for 10 days. To prepare a bio-ink mixture for the reconstitution of tumor organoids with stroma by 3D bioprinting, 6 wells containing the embedded tumor organoids were treated with 0.5 mg/mL of a collagenase/dispase solution at 37° C. for 30 minutes, washed and centrifuged. The collected organoids were resuspended in 1 mL Matrigel (Growth Factor Reduced) containing patient-derived CAFs and HULECs at 4×10^7 cells/mL and 4×10^6 cells/mL, respectively. The reconstituted bio-ink was put into a sterilized 10 mL syringe with a 20-gauge needle, and stored on ice for less than 5 minutes before printing. A jet-type 3D printer (in vivo, Rokit, Korea) was used to reconstitute tumor organoids with stroma as described above. A G-code based script was written by Creator K software (Rokit, Korea) to print a 5×6 array of 10 μL drops. Each drop was dispensed on a parafilm at 8-mm intervals by extrusion. […]
# [4] = test system: three-layered miniature bladders; test: Cell proliferation in three-layered miniature bladders under Hh pathway manipulation; assay type: cell-based, mouse; conditions: 50 μM Vismodegib or 100 nM SAG vs DMSO, 7 days
# Procedure: as §1, §2
# [5] = test system: BBN-induced mouse bladder tumor organoids; test: Growth of BBN-induced mouse bladder tumor organoids treated with SAG or FK506; assay type: cell-based; conditions: reconstituted mouse tumor organoids with stroma
# [6] = test system: 3D bioprinted patient-derived bladder tumor organoids; test: Tumor cell apoptosis (caspase3) in 3D bioprinted patient-derived bladder tumor organoids treated with cisplatin; assay type: cell-based, human; conditions: luminal and basal tumor-derived printed tumor organoids
# Procedure: Normal bladder organoids were treated with 50 μM Vismodegib (Abmole), 100 nM SAG (Millipore) or DMSO and cultured in a spinning bioreactor for 7 days. Bladder tumor organoids were treated with 300 nM SAG, 5 μM FK506 (Cayman Chemical) or DMSO, and cultured in a spinning bioreactor for 7 days. Human bladder tumor organoids were cultured in an organoid medium for 7 days in a spinning bioreactor before treatment with chemotherapeutic drugs. Subsequently, tumor organoids were cultured for 48 hours in the presence of cisplatin (0, 0.2, 0.5, 1, 2, 5, 10, 50 and 100 μm, Sigma), gemcitabine (0, 0.2, 0.5, 1, 2, 5, 10, 50 and 100 μM, Sigma) or mitomycin C (0, 0.2, 0.5, 1, 2, 5, 10, 50 and 100 μM, Sigma). To produce dose-response curves for the three chemotherapeutic drugs, cell viability was assayed using a CellEvent™ Caspase-3/7 Green Detection Reagent (Thermo Fisher) according to the manufacturer's instructions. Forty-eight hours after treatment with cell therapeutic agent, bladder tumor organoids were fixed in 4% PFA at 4° C. for 15 minutes, washed with PBS three times, cultured in 30% sucrose overnight, and embedded in an OCT compound. Capase-3/7-stained cells in the bladder tumor organoids were counted based on green fluorescence signals, and dose-response curves were generated using GraphPad Prism ver.6. […]
SMILES,proliferation of epithelial cells and stromal cells [1],"growth of reconstituted tumor organoids of basal subtypes ([2]; basal P-2 and P-3, in the presence of tumor stroma)","response of basal subtype tumor organoids ([2]; basal subtype, without tumor stroma)",response of reconstituted luminal tumor organoids ([2]; reconstituted luminal tumor organoids),"tumor growth ([3]; bioprinted basal, only in the presence of stroma)","tumor growth ([3]; bioprinted, luminal P-1 tumor, regardless of tumor stroma)",proliferation of epithelial cells and stromal cells [4],tumor growth [5],tumor cell apoptosis response ([6]; reconstituted with tumor stroma),tumor cell apoptosis ([6]; without tumor stroma)
CNC1CCC(N(Cc2cccc(-c3ccncc3)c2)C(=O)c2sc3ccccc3c2Cl)CC1 (stereo not drawn) [SAG],significant increase,significantly reduced,do not respond,do not respond,significantly inhibited,does not exhibit a significant change,increases,inhibited,,
CS(=O)(=O)c1ccc(C(=O)Nc2ccc(Cl)c(-c3ccccn3)c2)c(Cl)c1 [Vismodegib],significant decrease,,,,,,decreases; also recorded: reduces,,,
N.N.[Cl][Pt][Cl] [cisplatin],,,,,,,,,significantly reduced,increased
